One compound from the NIST ThermoML archive (doi:10.1016/j.jct.2013.06.007) can be followed below.

The conditions of data set [1]: Crystal; DTA.
The nature of data set [2]: Molar enthalpy of transition or fusion. The settings on record: Crystal; DSC.

The structures appear in SMILES notation. Several values for one entry are separate records, joined by “and”; a condition that tells them apart may be missing. Identical values can stand only once. ± gives the expanded uncertainty stated by the source.

In the case of `CCOC(=O)NCCOc1ccc(Oc2ccccc2)cc1` [fenoxycarb], the Normal melting temperature in data set [1] is 53.47 ± 0.48 °C and 52.70 ± 0.87 °C. Moreover, the “Molar enthalpy of transition or fusion” value in data set [2] was 6.75 kcal/mol and 6.39 kcal/mol.
